# Source: patent US11066443B2 (Hoffmann-La Roche Inc., priority 2017, dated 2021)
# Legend:
# P. aeruginosa ATCC27853 = assay: Antimicrobial susceptibility testing: microbroth minimum inhibitory concentration (MIC) determination; assay type: cell-based; conditions: Pseudomonas aeruginosa, CLSI microbroth dilution in CAMHB, read after 20 hours, lowest concentration inhibiting >=80% of growth
# Protocol: The in vitro antimicrobial activity of the compounds was determined through microbroth minimum inhibitory concentration (MIC) methodology performed according to the Clinical and Laboratory Standard Institute guidelines (CLSI—M07-A9 Jan. 2012. Methods for Dilution Antimicrobial Susceptibility Tests for Bacteria That Grow Aerobically; Approved Standard—Ninth Edition, Clinical and Laboratory Standards Institue, Wayne/PA, US and the CLSI—M100-S24 Jan. 2014. Performance Standards for Antimicrobial Susceptibility Testing; Approved Standard—Fourth Informational Supplement, Clinical and Laboratory Standards Institue, Wayne/PA, US).
# The compound stock solution was freshly prepared at 10× the required top concentration for the MIC determination, i.e. at 1280 mg/L, by reconstitution of the dry compound in 50:50 water:DMSO.
# Polystyrene non-treated 96 wells microtiter plates were used for preparing panel containing compound serial twofold diluted at two times the final testing concentration (e.g. range from 64 to 0.06 μg/ml) in cation adjusted Mueller Hinton broth medium (CAMHB).
# Inoculum was prepared by the “direct colony suspension method”. Colonies of P. aeruginosa ATCC27853 or clinical isolates were suspended in saline solution and adjusted to 0.5 McFarland, diluted 100 times in CAMHB broth and 50 μl added to each well (final concentration of cells ˜5×10^(5) CFU/ml and Final volume/well of 100 μl). Microtiter plates were sealed and incubated at 35±2° C.
# MICs values were read after 20 hours of incubation and recorded as the lowest concentration of the antimicrobial that inhibits more or equal to 80% of growth of the organism as detected by the unaided eye and using a microtiter plate optical density reader (OD 600 nm).
# Table 1 provides the minimum inhibitory concentration (MIC) in microgram per milliliter of the compounds of present invention obtained against the P. aeruginosa ATCC27853 (Table 1).
# P. aeruginosa NCTC11454 = assay: Antimicrobial susceptibility testing: 50% growth inhibitory concentration (IC50) determination; assay type: cell-based; conditions: Pseudomonas aeruginosa, Iso-Sensitest broth, OD 600 nm every 20 minutes over 16h, growth inhibition during logarithmic growth
# Outline: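 Twofold dilutions (e.g. 50–0.097 μM final) in Iso-Sensitest broth were inoculated with P. aeruginosa NCTC11454 at ~5×10^5 CFU/mL and incubated at 35±2 °C. OD600 was read every 20 min over 16 h. IC50 was derived from growth inhibition in the logarithmic phase.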
MIC (P. aeruginosa ATCC27853) [µg/mL],IC50 (P. aeruginosa NCTC11454) [µM],Compound
8,8.8,"CN1C(=O)[C@H](CCCCN)NC(=O)[C@H](CCCN)NCc2ccccc2Sc2c(cc(-c3ccccc3)cc2C(F)(F)F)CNC(=O)[C@@H]1Cc1c[nH]c2ccccc12 [Example 28, (12S,15S,18S)-15-(4-Amino-butyl)-18-(3-amino-propyl)-12-(1H-indol-3-ylmethyl)-13-methyl-6-phenyl-4-trifluoromethyl-2-thia-10,13,16,19-tetraaza-tricyclo[19.4.0.0*3,8*]pentacosa-1(25),3,5,7,21,23-hexaene-11,14,17-trione]"
32,95.7,"CN1C(=O)[C@H](CCCCN)NC(=O)[C@H](CCCN)NCc2ccccc2Sc2c(Cl)cc(-c3cn(C)cn3)cc2CNC(=O)[C@@H]1Cc1c[nH]c2ccccc12 [Example 37, (12S,15S,18S)-15-(4-Amino-butyl)-18-(3-amino-propyl)-4-chloro-12-(1H-indol-3-ylmethyl)-13-methyl-6-(1-methyl-1H-imidazol-4-yl)-2-thia-10,13,16,19-tetraaza-tricyclo[19.4.0.0*3,8*]pentacosa-1(25),3,5,7,21,23-hexaene-11,14,17-trione]"
